In patent publication US4172143A, “2-Methoxy-benzamide derivatives” (priority 1974, dated 1979):
Where a name gives a salt, the structure may show the parent alone. Read-outs that look alike come from different tables or passages of the source.

Experiments:
[1] = tested on: emetic effect induced by apomorphine; assay: Antagonism towards emetic effect induced by apomorphine in dogs; assay type: in vivo; settings: Canis lupus familiaris, emesis induced by apomorphine, read-out: Antiemetic activity in dogs, AD 50
Source text: Some compounds have also antiemetic activity which was studied with the following test:
(4) Antagonism towards emetic effect induced by apomorphine in dogs (Shallek et al, Arch. Int. Pharmacodyn. 174 (1968) N°. 2, 350-372. Boissier et al, Med. Exp. 6 (1962), 320-326). The results are expressed in active doses 50% (AD 50) and set in Table IX.

[2] = tested on: stereotypies induced by apomorphine; assay: Antagonism towards stereotypies induced by apomorphine in rats (method of Janssen); assay type: in vivo, male Sprague-Dawley (Charles River) rats; settings: for ED50: Rattus norvegicus, read-out: Antagonism to stereotypies induced by apomorphine in rats, AD 50; for Antagonism to stereotypies induced by apomorphine in rats, AD 50: oral; for antagonism to stereotypies induced in rats by apomorphine: oral administration
Source text: (1) Antagonism towards stereotypies induced by apomorphine in male Sprague-Dawley (Charles River) rats of average weight 130 g, in accordance with the method of Janssen and colleagues (Arzneim. Forsch. 1960, 10, 1003).
(§1) In these two tests, the results are expressed by the 50% active doses (AD 50).

[3] = in vivo; settings: for LD50 at 48 h: LD 50 over 48 hours
Description: The compounds were administered in the form of their hydrochlorides or of their methanesulphonates.
The acute toxicity was evaluated in Swiss CDl mice of both sexes, of average weight 20 g. The 50% lethal dose (LD 50) of each product was determined by a graphical method.

[4] = Catalepsy-inducing effect in rats (method of Tedeschi); assay type: in vivo, male Sprague-Dawley (Charles River) rats; settings: for TD50: rat, in vivo, ip
Source text: (2) Catalepsy-inducing effect in rats of the same species and of the same weight, in accordance with the method of Tedeschi and colleagues (Arch. Intern. Pharmacodyn. 1959, 122, 129).
as §1

[5] = Protection against a stress due to an environment and new feedstuffs (method of Stephens); assay type: in vivo, mice; settings: dose producing 40% increase in feedstuff taken, * no activity was observed up to this dose; for ED40: Mus musculus, po, read-out: Protection against stress in mice, AD 40
Description: (3) Protection against a stress due to an environment and due to new feedstuffs, in male […] (CDl strain, weight about 20 g) in accordance with the method of Stephens (Brit. J. Pharmacol. 1973, 49, 146 P.). The doses (AD 40) which produce a 40% increase in the feedstuff taken were determined.

[6] = Neuro-pharmacological tests (overall conclusion); assay type: in vivo
Source text: The neuro-pharmacological activity was studied with the aid of the following three tests: […]

[7] = ip, intraperitoneal, results for hydrochlorides given in weight of base
[8] = mouse, in vivo, ip, intraperitoneal, mice
[9] = po, hydrochlorides in weight of base, * = no activity was observed up to this dose
[10] = hydrochlorides in weight of base, * = no activity was observed up to this dose

COc1ccc(S(N)(=O)=O)cc1C(=O)NCC1CCCN1CC1CC1 (racemic) [SL-C.036 (racemic) (cl), N-[(1-cyclopropylmethyl-pyrrolidinyl-2)-methyl]-2-methoxy-5-sulphamoyl-benzamide]
ED50 [1]: 0.037 mg/kg | ED50 [2, 7]: 15 mg/kg | LD50 at 48 h [3, 8]: 400 mg/kg

COc1ccc(S(N)(=O)=O)cc1C(=O)NCC1CCCN1Cc1ccc(F)cc1 (racemic) [SL-C.205 (racemic) (cl), N-[(1-p-fluorobenzyl-pyrrolidinyl-2)-methyl]-2-methoxy-5-sulphamoyl-benzamide]
TD50 [4]: > 480 mg/kg | ED50 [2, 7]: 30 mg/kg | ED50 [2, 9]: 85 mg/kg | LD50 at 48 h [3, 8]: 750 mg/kg | LD50 at 168 h ([3]; mouse, in vivo, po, LD 50, oral, mice, 7 days): 3000 mg/kg

COc1ccc(S(N)(=O)=O)cc1C(=O)NCC1CCCN1Cc1ccc(F)cc1 (racemic) [SL-C.205 (racemic) (ms), N-[(1-p-fluorobenzyl-pyrrolidinyl-2)-methyl]-2-methoxy-5-sulphamoyl-benzamide]
Antagonism to stereotypies induced by apomorphine in rats, AD 50 ([2]; hydrochlorides in weight of base, * = no activity was observed up to this dose, racemic (ms)): 75 mg/kg | ED40 [5]: 60 mg/kg | LD50 at 48 h ([3]; mouse, in vivo, iv, mice): 190 mg/kg

COc1ccc(S(N)(=O)=O)cc1C(=O)NCC1CCCN1Cc1ccc(F)cc1 (single isomer, unassigned) [SL-C.205 1 (ms), N-[(1-p-fluorobenzyl-pyrrolidinyl-2)-methyl]-2-methoxy-5-sulphamoyl-benzamide]
activity in neuro-pharmacological tests ([6]; in vivo): practically inactive | Antagonism to stereotypies induced by apomorphine in rats, AD 50 [2, 10]: > 150 mg/kg | ED40 [5]: > 30 mg/kg | LD50 at 48 h ([3]; mouse, in vivo, iv, mice): 160 mg/kg

COc1ccc(S(N)(=O)=O)cc1C(=O)NCC1CCCN1Cc1ccc(F)cc1 (single isomer, unassigned) [SL-C.205 d (ms), N-[(1-p-fluorobenzyl-pyrrolidinyl-2)-methyl]-2-methoxy-5-sulphamoyl-benzamide]
activity relative to the racemic compound ([6]; depending on the chosen method of evaluation): 1.5 times or twice | Antagonism to stereotypies induced by apomorphine in rats, AD 50 [2, 10]: 50 mg/kg | Protection against stress in mice, AD 40 ([5]; oral): 30 mg/kg | LD 50 over 48 hours ([3]; mouse, in vivo, iv): 160 mg/kg

COc1ccc(S(N)(=O)=O)cc1C(=O)NCC1CCCN1C(C)c1ccccc1 (single isomer, unassigned) [SL-D.222 (cl), 1(-)-N-[(1-α-methylbenzyl-pyrrolidinyl-2-)-methyl]-2-methoxy-5-sulphamoyl-benzamide]
LD50 at 48 h [3, 8]: 625 mg/kg

COc1ccc(S(N)(=O)=O)cc1C(=O)NCC1CCCN1C(C)c1ccccc1 (single isomer, unassigned) [SL-D.223 (cl)]
LD 50 over 48 hours ([3]; mouse, in vivo, ip, 2880 min): 650 mg/kg

COc1ccc(S(N)(=O)=O)cc1C(=O)NC[C@@H]1CCCN1CC1CCCCC1 [77 205 (S) (+) (ms)]
ED50 [1]: 0.014 mg/kg

COc1ccc(S(N)(=O)=O)cc1C(=O)NC[C@@H]1CCCN1CC1CC1 [77.075 (S) (+) (ms), N-[(1-cyclopropylmethyl-pyrrolidinyl-2)-methyl]-2-methoxy-5-sulphamoyl-benzamide]
ED50 [2, 7]: 4 mg/kg | LD50 at 48 h [3, 8]: 350 mg/kg

COc1ccc(S(=O)(=O)N(C)C)cc1C(=O)NCC1CCCN1CC1CC1 (stereo not shown) [77.149]
ED50 [1]: 0.04 mg/kg | ED50 [2, 7]: 3 mg/kg | LD50 at 48 h [3, 8]: 240 mg/kg

COc1ccc(S(C)(=O)=O)cc1C(=O)NCC1CCCN1CC1CC1 (stereo not shown) [77.173]
ED50 [2, 7]: 1.5 mg/kg | LD50 at 48 h [3, 8]: 235 mg/kg

COc1ccc(S(N)(=O)=O)cc1C(=O)NCC1CCCN1CC1CCCCC1 (stereo not shown) [77.205]
ED50 [2, 7]: 8 mg/kg | LD50 at 48 h [3, 8]: 360 mg/kg

CCS(=O)(=O)c1ccc(OC)c(C(=O)NCC2CCCN2CC2CC2)c1 (stereo not shown) [77.206]
ED50 [2, 7]: 3 mg/kg | LD50 at 48 h [3, 8]: 310 mg/kg

COc1ccc(S(N)(=O)=O)cc1C(=O)NCC1CCCN1Cc1cccc(Cl)c1 (stereo not shown) [SL-C.193 (cl)]
TD50 [4]: > 300 mg/kg

COc1ccc(S(N)(=O)=O)cc1C(=O)NCC1CCCN1Cc1ccc(F)cc1 (stereo not shown) [SL-C.205, N-[(1-p-fluorobenzyl-pyrrolidinyl-2)-methyl]-2-methoxy-5-sulphamoyl-benzamide]
induction of catalepsy ([4]; up to high doses): does not induce catalepsy up to high doses | activity compared with Sulpiride ([6]; than Sulpiride): markedly more active | antagonism to stereotypies induced in rats by apomorphine [2]: powerful antagonistic agent | toxicity compared with Sulpiride ([3]; than Sulpiride): much less toxic

C#CCN1CCCC1CNC(=O)c1cc(S(N)(=O)=O)ccc1OC (stereo not shown) [SL-C.299 (cl)]
TD50 [4]: > 150 mg/kg | ED50 [2, 7]: 80 mg/kg | LD50 at 48 h [3, 8]: 170 mg/kg

COc1ccc(S(N)(=O)=O)cc1C(=O)NCC1CCCN1C(c1ccccc1)c1ccccc1 (stereo not shown) [SL-D.090 (cl)]
LD50 at 48 h [3, 8]: > 1500 mg/kg

COc1ccc(S(C)(=O)=O)cc1C(=O)NCC1CCCN1Cc1ccc(F)cc1 (stereo not shown) [SL-D.163 (cl)]
ED50 [2, 7]: 3 mg/kg | LD50 at 48 h [3, 8]: 400 mg/kg

COc1ccc(Cl)cc1C(=O)NCC1CCCN1Cc1ccc(F)cc1 (stereo not shown) [SL-D.165 (cl), N-[(1-p-fluorobenzyl-pyrrolidinyl-2)-methyl]-2-methoxy-5-chloro-benzamide]
ED50 [2, 7]: 1.5 mg/kg | ED40 [5]: 30 mg/kg | LD50 at 48 h [3, 8]: 275 mg/kg

COc1ccc(S(N)(=O)=O)cc1C(=O)NCC1CCCN1Cc1ccccc1F (stereo not shown) [SL-D.192 (cl)]
ED40 [5]: 30 mg/kg | LD50 at 48 h [3, 8]: > 2000 mg/kg

COc1ccc(S(N)(=O)=O)cc1C(=O)NCC1CCCN1Cc1cccc(F)c1 (stereo not shown) [SL-D.193 (cl), N-[(1-m-fluorobenzyl-pyrrolidinyl-2)-methyl]-2-methoxy-5-sulphamoyl-benzamide]
ED50 [2, 7]: 150 mg/kg | ED40 [5]: 30 mg/kg | LD50 at 48 h [3, 8]: > 2000 mg/kg

COc1ccc(S(N)(=O)=O)cc1C(=O)NCC1CCCN1CC=Cc1ccc(F)cc1 (stereo not shown) [SL-D.194 (cl)]
LD50 at 48 h [3, 8]: > 2000 mg/kg

COc1ccc(S(N)(=O)=O)cc1C(=O)NCC1CCCN1CCC#N (stereo not shown) [Sl-C.262 (cl), N-[1-(2-cyanoethyl)-pyrrolidinyl-2-methyl]-2-methoxy-5-sulphamoyl-benzamide]
LD50 at 48 h [3, 8]: > 2000 mg/kg

CCN1CCCC1CNC(=O)c1cc(S(N)(=O)=O)ccc1OC (stereo not shown) [Sulpiride (cl), N-[(1-ethylpyrrolidinyl-2)-methyl]-2-methoxy-5-sulphamoyl-benzamide hydrochloride, reference compound]
TD50 [4]: > 100 mg/kg | ED50 [2, 7]: 60 mg/kg | ED50 [2, 9]: > 600 mg/kg | antagonism to stereotypies induced in rats by apomorphine [2]: inactive
